{"source": "paper PMC9096165", "about": "(Frontiers in Pharmacology, 2022)", "key": {"[1]": {"tested_on": "CXCL1/KC", "assay": "CXCL1 ELISA in bladder tissue", "format": "in vivo, rat", "conditions": "preventive: 20 mg kg^−1 + 7 mg kg^−1 twice daily for 7 days, CYP rats", "method": "Animals pre-treated with the vehicle or a single high oral dose of DF2755A (20 mg kg^−1; 12 h before the first CYP administration) followed by repeated lower doses administration (7 mg kg^−1 twice daily for 7 days) during IC development were deeply anesthetized with isoflurane (4%) and then killed.\nAfter killing, rat abdomen was opened through a midline incision, and bladder and proximal urethra were exposed. A catheter was inserted into the bladder through the urethra and a loose ligature was placed around the neck of the urinary bladder. Bladder was inflated with saline via the catheter to slightly distend the bladder and ligature was tightened to maintain proper distension. Bladder was then excised cutting above the insertion point of ureters, and therefore the bladder neck was not included into the bladder sample. […] One piece (B1) was placed in Eppendorf, then snap-frozen in liquid nitrogen, and stored at −80°C until quantification using ELISA assay. […] For the microscopic observations of bladder inflammation, the following parameters were analyzed: bladder edema in scores (n = 10/group), bladder hemorrhage in scores (n = 10/group), urothelial loss in scores (n = 10/group), and total inflammatory score, which was calculated by adding all the individual lesion scores (n = 10/group). […]"}, "[2]": {"tested_on": "CXCR1", "assay": "CXCR1 mRNA expression in F11 cells (RT PCR)", "format": "cell-based", "conditions": "DF2755A 1 µM + CYP 100 nM", "excerpt": "(§1) For these experiments, cells at 18th passage were used.\n(§2) Triplicate samples were run for each gene."}, "[3]": {"assay": "Routes and rates of excretion after single oral [14C]DF2755A", "format": "in vivo", "conditions": "single oral 20 mg/kg, female SD rats", "experimental": "Prior to administration and for acclimatization, animals (n = 6) were transferred to individual metabolic cages and were left therein for the duration of the study except for a short period during dosing. The metabolic cages were specifically designed for the separate collection of urine and feces. The preparation of dose formulation was performed on the day of experiment. The test item was dissolved in the appropriate volume of saline solution (NaCl, 0.9% w v^−1) to achieve the dose volume of 5 ml kg^−1. The resulting solution was then administered via a gavage fed down the esophagus to enable the formulation to be dispensed directly into the stomach.\nRadioactivity was extracted from the selected feces and urine homogenate pools with appropriate solvents based on methodology developed at Quotient (Rushden) Ltd. and analyzed by quantitative radioactivity analysis (QRA)."}, "[4]": {"tested_on": "TRPV1", "assay": "TRPV1 protein level in F11 cells (Western blotting)", "format": "cell-based", "conditions": "DF2755A 1 µM + CYP 100 nM", "excerpt": "as §1, §2\nControl and treated F11 cells were collected and lysed in an ice-cold RIPA buffer containing protease and phosphatase inhibitor cocktail (Sigma-Aldrich, United States). The extracted proteins were quantified using BCA assay (Thermo, United States). NuPAGE lithium dodecyl sulfate sample buffer (Cat#NP007, Thermo, United States) and NuPAGE sample reducing agent (Cat#NP0004, Thermo, United States) were added to the samples and then put in the Thermoblock (Eppendorf, United Kingdom) at 75°C for 10 min. Protein lysates (30 μg) were separated on NuPAGE bis–tris glycine gradient precast gel (Cat#NP0321PK2, Invitrogen, United States) and electroblotted on a PVDF membrane (Cat#IPVH00010, Millipore, United States) using a semi-dry system (Thermo, United States). Non-specific binding sites were blocked by blocking solution (Cat#000105, Invitrogen, United States) for 15 min at RT. […] The relative densities of the immunoreactive bands were determined and normalized with respect to actin, using Fiji software. […]"}, "[5]": {"tested_on": "F11 cells", "assay": "F11 cell viability (CellTiter AQueous One)", "format": "cell-based", "conditions": "differentiated F11 cells, 24 h, 0.1 to 5 µM", "method": "as §1\n[…] Cell viability was determined using the colorimetric method CellTiter AQueous One Solution Cell Proliferation Assay (Promega Corporation, United States), as previously reported ([Brandolini et al., 2017]). The quantity of formed formazan, as a function of viability, was measured at 492 nm using an ELISA plate reader, Infinite F200 (Tecan, Männedorf, Swiss). The results from five independent experiments were expressed as absorbance at 492 nm."}, "[6]": {"assay": "Tissue distribution by quantitative whole-body autoradiography", "format": "in vivo, female SD rats", "conditions": "at tmax (2 h after dosing), oral 20 mg/kg", "experimental": "Tissue distribution was performed by quantitative whole-body autoradiography (QWBA). At the selected time points (2, 6, 12, 24, 48, 120, and 168 h post-oral administration of the compound), animals (n = 6) were killed using an overdose of carbon dioxide, followed by immediate snap freezing in a hexane/solid carbon dioxide mixture. Each carcass was subjected to WBA using procedures based on the work of [Waddell and Brinkhous (1967)]. Sections were taken at up to six different levels of the rat body to include as many tissues as possible (a minimum of 30). Distribution of radioactivity in the sections was determined and quantified by bioimage analysis."}}, "data": [{"molecule": "C[C@H](C(=O)[O-])c1ccc(Nc2nc(C(F)(F)F)cs2)cc1.[Na+]", "note": "[DF2755A, sodium (2S)-2-(4-{[4-(trifluoromethyl)-1,3-thiazol-2-yl]amino}phenyl)propanoate]", "values": [{"measurement": "bladder tissue expression of CXCL1/KC versus vehicle-treated rats", "setting": "[1]", "value": "strongly inhibited"}, {"measurement": "CXCR1 mRNA expression in CYP-exposed cells", "setting": "[2]", "value": "restored the mRNA expression of all the targets to control values"}, {"measurement": "overall mean recovery of radioactivity", "setting": "[3]; 0 to 48 h post-dose", "value": "97.67 % of dose"}, {"measurement": "Mean recovery of radioactivity, feces", "setting": "[3]; 0–168 h", "value": 77.10, "unit": "% dose"}, {"measurement": "Mean recovery of radioactivity, total", "setting": "[3]; 0–168 h", "value": 102.06, "unit": "% dose"}, {"measurement": "Mean recovery of radioactivity, urine", "setting": "[3]; 0–168 h", "value": 24.13, "unit": "% dose"}, {"measurement": "TRPV1 protein level in CYP-exposed cells", "setting": "[4]", "value": "restored to control expression"}, {"measurement": "neuronal cell viability", "setting": "[5]", "value": "did not modulate neuronal cell viability"}, {"measurement": "radioactivity concentration, blood content into the heart", "setting": "[6]", "value": "38.3 μg equivalents DF2755A g^−1 of tissue"}, {"measurement": "radioactivity concentration, kidney as a whole", "setting": "[6]", "value": "29.6 μg equivalents DF2755 A/g^−1 of tissue"}, {"measurement": "radioactivity concentration, kidney cortex", "setting": "[6]", "value": "33.2 μg equivalents DF2755A g^−1 of tissue"}, {"measurement": "radioactivity concentration, liver", "setting": "[6]", "value": "41.7 μg equivalents DF2755A g^−1 of tissue"}, {"measurement": "radioactivity concentration, small intestine contents", "setting": "[6]", "value": "180 μg equivalents DF2755A g^−1 of tissue"}, {"measurement": "radioactivity concentration, stomach contents", "setting": "[6]", "value": "51.8 μg equivalents DF2755A g^−1 of tissue"}, {"measurement": "radioactivity concentration, urinary bladder contents", "setting": "[6]", "value": "63.0 μg DF2755A g^−1 of tissue"}, {"measurement": "radioactivity concentration, urinary bladder wall", "setting": "[6]", "value": "24.3 μg equivalents DF2755A g^−1 of tissue"}, {"measurement": "share of the administered dose in urinary bladder contents", "setting": "[6]", "value": 8, "unit": "%"}, {"measurement": "share of the administered dose in urinary bladder wall", "setting": "[6]", "value": 3, "unit": "%"}]}]}
